Measured values published in ChEMBL document CHEMBL5532727, “The Inhibitors of Mucosa-Associated Lymphoid Tissue Lymphoma Translocation Protein 1 (MALT-1) Protease as Potential Treatment of ABC-DLBCL and Similar Diseases” (ACS Med Chem Lett, 2024).

Test: Inhibition of IL-6 production in MALT-1 dependent human OCILY3 cells incubated for 48 hrs by AlphaLISA immunoassay
Assay type: functional, cell-based
Settings: OCI-Ly3, 48 h

Compound | EC50 [µM]
CO[C@H](c1c(Nc2ccc([C@H](N(C)C(=O)C3CCS(=O)(=O)CC3)C(F)(F)F)cc2)cnc2sc(C)nc12)C(F)F | 0.14
CO[C@H](c1c(Nc2ccc([C@@H](C(F)F)N(C)C(=O)C3CCN(C(=O)CO)CC3)cc2)cnc2sc(C)nc12)C(F)F | 0.44
CO[C@H](C)c1c(Nc2ccc([C@H](N(C)C(=O)C3CCS(=O)(=O)CC3)C(F)(F)F)cc2)cnc2sc(C)nc12 | 0.07
CO[C@@H](C)c1c(Nc2ccc([C@H](N(C)C(=O)C3CCN(C(=O)[C@H](O)CO)CC3)C(F)(F)F)cc2)cnc2sc(C)nc12 | 0.41
CO[C@@H](c1c(Nc2ccc([C@H](N(C)C(=O)C3CCS(=O)(=O)CC3)C(F)(F)F)cc2)cnc2sc(C)nc12)C(F)F | 0.34
CO[C@H](c1c(Nc2ccc([C@H](N(C)C(=O)C3CCN(C(C)=O)CC3)C(F)(F)F)cc2)cnc2sc(C)nc12)C(F)F | 1.15

Next, values leading:

EC50 [µM] | Compound
0.2 | CO[C@H](C)c1c(Nc2ccc([C@@H](C(F)F)N(C)C(=O)C3CCS(=O)(=O)CC3)cc2)cnc2sc(C)nc12
0.04 | Cc1nc2c([C@H](C)C(F)(F)F)c(Nc3ccc([C@H](N(C)C(=O)C4CCS(=O)(=O)CC4)C(F)(F)F)cc3)cnc2s1 (single isomer, unassigned)
0.27 | CO[C@H](c1c(Nc2ccc([C@@H](C(F)F)N(C)C(=O)C3CCN(C(=O)CO)CC3)cc2)cnc2sc(C)nc12)C(F)(F)F
0.2 | CO[C@@H](C)c1c(Nc2ccc([C@H](N(C)C(=O)C3CCS(=O)(=O)CC3)C(F)(F)F)cc2)cnc2sc(C)nc12
0.3 | CO[C@@H](C)c1c(Nc2ccc([C@H](N(C)C(=O)C3CCS(=O)(=O)CC3)C(F)(F)F)cc2)cnc2sc(C(F)F)nc12
0.38 | CO[C@@H](C)c1c(Nc2ccc([C@H](N(C)C(=O)C3CCN(C(=O)CCO)CC3)C(F)(F)F)cc2)cnc2sc(C)nc12
